Our source for the IC50 values is US20250163047A1, “HETEROCYCLIC COMPOUNDS, COMPOSITIONS THEREOF, AND METHODS OF TREATMENT THEREWITH” (BeiGene, Ltd., priority 2022, published 2025).

The target in test [1] is T1, Cbl-b (aa36-427) (Homo sapiens, UniProt Q13191).
T1 construct: Cbl-b (aa36-427, in-house); made in house
Description: Co-expressed Cbl-b with BirA biochemical assay (CBLB/E2-Ub binding, HTRF). To be noted: 0.6 nM Cbl-b co-expressed with BirA, HTRF; read-out: co-express CBLB/E2-Ub-binding assay IC50. An excerpt: (§1) The assay in the absence of a Cbl-b/Cbl inhibitor, where phosphorylation of Cbl-b/Cbl by the Src kinase allows UbcH5B-Ub to bind to Cbl-b/Cbl and brings the Bodipy-Fluorescein tagged ubiquitin in proximity to the streptavidin-terbium bound to the N-terminal biotinylated Avi-tagged Cbl-b/Cbl. […] The lack of a FRET signal indicates Cbl-b/Cbl is inhibited by the Cbl-b/Cbl inhibitor.

Test [2] concerns the target T2, Cbl (aa49-434) (Homo sapiens, UniProt P22681).
T2 construct: Cbl (aa49-434, in-house); made in house
T2 sequence (P22681 49-434): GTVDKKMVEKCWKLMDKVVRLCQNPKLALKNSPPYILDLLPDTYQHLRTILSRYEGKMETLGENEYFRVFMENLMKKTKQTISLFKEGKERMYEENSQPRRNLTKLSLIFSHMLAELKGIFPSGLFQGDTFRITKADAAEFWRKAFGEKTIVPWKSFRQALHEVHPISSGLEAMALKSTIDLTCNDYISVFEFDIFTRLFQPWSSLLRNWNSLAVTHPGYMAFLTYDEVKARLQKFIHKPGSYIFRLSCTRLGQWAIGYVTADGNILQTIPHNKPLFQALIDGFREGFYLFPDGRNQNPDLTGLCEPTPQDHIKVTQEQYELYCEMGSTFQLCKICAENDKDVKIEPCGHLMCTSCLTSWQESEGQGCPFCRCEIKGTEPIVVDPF
The test is described as follows: Co-expressed Cbl with BirA biochemical assay (CBL/E2-Ub binding, HTRF). The conditions noted are these: 0.6 nM Cbl co-expressed with BirA, read-out: co-express CBL/E2-Ub-binding assay IC50.
From the text: as §1
On the technique in general: Time-resolved FRET reads energy transfer from a long-lived donor to a nearby acceptor.

T1 sequence (Q13191 36-427): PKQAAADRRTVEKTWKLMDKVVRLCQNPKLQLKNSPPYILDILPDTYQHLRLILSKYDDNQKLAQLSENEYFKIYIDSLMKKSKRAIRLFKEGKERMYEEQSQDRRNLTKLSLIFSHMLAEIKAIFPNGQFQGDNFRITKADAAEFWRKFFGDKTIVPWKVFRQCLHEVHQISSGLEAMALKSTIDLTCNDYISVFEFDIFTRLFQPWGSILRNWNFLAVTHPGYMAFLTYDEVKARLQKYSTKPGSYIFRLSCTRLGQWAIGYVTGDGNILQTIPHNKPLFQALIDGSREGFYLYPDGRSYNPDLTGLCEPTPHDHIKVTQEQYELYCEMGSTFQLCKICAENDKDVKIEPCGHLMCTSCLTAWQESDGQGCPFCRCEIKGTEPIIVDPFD

As for `C[C@H]1CCCN(Cc2cc(C(=O)Nc3cccc([C@]4(c5nncn5C)C[C@@H](CC#N)C4)c3)c3nc(F)cn3c2)C1` [Compound A13, N-(3-((1s,3R)-3-(cyanomethyl)-1-(4-methyl-4H-1,2,4-triazol-3-yl)cyclobutyl)phenyl)-2-fluoro-6-(((S)-3-methylpiperidin-1-yl)methyl)imidazo[1,2-a]pyridine-8-carboxamide], the figures for the IC50 in test [1] and in test [2] were 6.1 nM and 47 nM, respectively.

Regarding `Cn1cnnc1[C@]1(c2cncc(NC(=O)c3cc(CNC4(C)CCC4)c4[nH]ccc4n3)c2)C[C@H](C)C1` [Compound B50, N-(5-((1s, 3s)-3-methyl-1-(4-methyl-4H-1,2,4-triazol-3-yl)cyclobutyl)pyridin-3-yl)-7-(((1-methylcyclobutyl)amino)methyl)-1H-pyrrolo[3,2-b]pyridine-5-carboxamide], the IC50 in test [1] was 1.5 nM; in test [2], 9.3 nM.

On to `C[C@H]1CCCN(Cc2cc(C(=O)Nc3cccc([C@]4(c5nncn5C)C[C@@H](CC#N)C4)c3)n3ncc(Cl)c3c2)C1` [Compound A21, 3-chloro-N-(3-((1s,3R)-3-(cyanomethyl)-1-(4-methyl-4H-1,2,4-triazol-3-yl)cyclobutyl)phenyl)-5-(((S)-3-methylpiperidin-1-yl)methyl)pyrazolo[1,5-a]pyridine-7-carboxamide], for which the IC50 in test [1] turned out to be 2.9 nM; in test [2], 31 nM.

Consider `Cn1ccc2nc(C(=O)Nc3cccc([C@]4(c5nncn5C)C[C@@H](CC#N)C4)c3)cc(CNC3(C)CC3)c21` [Compound B57, N-(3-((1s, 3s)-3-(cyanomethyl)-1-(4-methyl-4H-1,2,4-triazol-3-yl)cyclobutyl)phenyl)-1-methyl-7-(((1-methylcyclopropyl)amino)methyl)-1H-pyrrolo[3,2-b]pyridine-5-carboxamide], for which the IC50 is 1.3 nM in test [1] and 15 nM in test [2].

`Cn1cnnc1CC1(c2cccc(NC(=O)c3cc(CNC4CCCCC4)cn4ccnc34)c2)COC1` [Compound A9, 6-((cyclohexylamino)methyl)-N-(3-(3-((4-methyl-4H-1,2,4-triazol-3-yl)methyl)oxetan-3-yl)phenyl)imidazo[1,2-a]pyridine-8-carboxamide]: the IC50 was 12.8 nM in test [1] and 24.3 nM in test [2].

`C[C@H](NCc1cc(C(=O)Nc2cccc([C@]3(c4nncn4C)C[C@@H](C)C3)c2)c2nccn2c1)C1CCC1` [Compound A70, 6-((((S)-1-cyclobutylethyl)amino)methyl)-N-(3-((1s,3R)-3-methyl-1-(4-methyl-4H-1,2,4-triazol-3-yl)cyclobutyl)phenyl)imidazo[1,2-a]pyridine-8-carboxamide]: the IC50 in test [1] was found to be 1.1 nM; in test [2] it was 4.1 nM.

As to `Cn1cnnc1[C@]1(c2cncc(NC(=O)c3cc(CNC4(C)CCC4)cn4c(Cl)cnc34)c2)C[C@H](C)C1` [Compound A82, 3-chloro-N-(5-((1s, 3s)-3-methyl-1-(4-methyl-4H-1,2,4-triazol-3-yl)cyclobutyl)pyridin-3-yl)-6-(((1-methylcyclobutyl)amino)methyl)imidazo[1,2-a]pyridine-8-carboxamide], the IC50 in test [1] is 0.7 nM; in test [2] it was 1.8 nM.

`Cn1cnnc1[C@]1(c2cccc(NC(=O)c3cc(CNCC4CCCC4)cn4ccnc34)c2)C[C@H](C)C1` [Compound A42, 6-(((cyclopentylmethyl)amino)methyl)-N-(3-((1s, 3s)-3-methyl-1-(4-methyl-4H-1,2,4-triazol-3-yl)cyclobutyl)phenyl)imidazo[1,2-a]pyridine-8-carboxamide]: the IC50 in test [1] came to 1.8 nM; in test [2], 7.6 nM.

Regarding `Cn1cnnc1[C@]1(c2cccc(NC(=O)c3cc(CNCC4CCCCC4)c4c(n3)C(C)(C)CC4)c2)C[C@H](CC#N)C1` [Compound C14, N-(3-((1s, 3s)-3-(cyanomethyl)-1-(4-methyl-4H-1,2,4-triazol-3-yl)cyclobutyl)phenyl)-4-(((cyclohexylmethyl)amino)methyl)-7,7-dimethyl-6,7-dihydro-5H-cyclopenta[b]pyridine-2-carboxamide], the figures for the IC50 in test [1] and in test [2] were 2 nM and 6.6 nM, respectively.

Take `Cn1cnnc1[C@]1(c2cccc(NC(=O)c3cc(CN[C@H]4C[C@@H](C)C4)c4[nH]ccc4n3)c2)C[C@H](C)C1` [Compound B33, N-(3-((1s, 3s)-3-methyl-1-(4-methyl-4H-1,2,4-triazol-3-yl)cyclobutyl)phenyl)-7-((((1s, 3s)-3-methylcyclobutyl)amino)methyl)-1H-pyrrolo[3,2-b]pyridine-5-carboxamide]: the figures for the IC50 in test [1] and in test [2] were 0.9 nM and 4.7 nM, respectively.

As to `Cc1cnc2c(C(=O)Nc3cccc([C@]4(c5nncn5C)C[C@@H](CC#N)C4)c3)cc(CN3CC[C@H](F)[C@H](C)C3)cn12` [Compound A47, N-(3-((1s,3S)-3-(cyanomethyl)-1-(4-methyl-4H-1,2,4-triazol-3-yl)cyclobutyl)phenyl)-6-(((3R,4S)-4-fluoro-3-methylpiperidin-1-yl)methyl)-3-methylimidazo[1,2-a]pyridine-8-carboxamide], the IC50 in test [1] is 1.4 nM; in test [2] it was 7 nM.

For the molecule `Cc1cnc2c(C(=O)Nc3cccc([C@]4(c5nncn5C)C[C@@H](C)C4)c3)cc(CN[C@@H](C)C3CCC3)cn12` [Compound A60, 6-((((S)-1-cyclobutylethyl)amino)methyl)-3-methyl-N-(3-((1s,3R)-3-methyl-1-(4-methyl-4H-1,2,4-triazol-3-yl)cyclobutyl)phenyl)imidazo[1,2-a]pyridine-8-carboxamide], the IC50 is 0.5 nM in test [1] and 1.1 nM in test [2].

Take `Cn1cnnc1[C@]1(c2cccc(NC(=O)c3cc(CNC4(C)CC4)c4[nH]cc(Cl)c4n3)c2)C[C@H](CC#N)C1` [Compound B24, 3-chloro-N-(3-((1s, 3s)-3-(cyanomethyl)-1-(4-methyl-4H-1,2,4-triazol-3-yl)cyclobutyl)phenyl)-7-(((1-methylcyclopropyl)amino)methyl)-1H-pyrrolo[3,2-b]pyridine-5-carboxamide]: the IC50 was 0.9 nM in test [1] and 17 nM in test [2].

`C[C@H]1CCCN(Cc2cc(C(=O)Nc3cccc(C4(Cc5nncn5C)COC4)c3)nn3cccc23)C1` [Compound B12, N-(3-{3-[(4-methyl-1,2,4-triazol-3-yl)methyl]oxetan-3-yl}phenyl)-4-{[(3S)-3-methylpiperidin-1-yl]methyl}pyrrolo[1,2-b]pyridazine-2-carboxamide]: the IC50 is 23.9 nM in test [1] and 51.6 nM in test [2].

`C[C@H](NCc1cc(C(=O)Nc2cccc([C@]3(c4nncn4C)C[C@@H](CC#N)C3)c2)c2nccn2c1)C1CCCC1` [Compound A31, N-(3-((1s,3R)-3-(cyanomethyl)-1-(4-methyl-4H-1,2,4-triazol-3-yl)cyclobutyl)phenyl)-6-((((S)-1-cyclopentylethyl)amino)methyl)imidazo[1,2-a]pyridine-8-carboxamide]: the IC50 in test [1] is 0.7 nM; in test [2] it was 1.3 nM.

Consider `C[C@H]1CCCN(Cc2cc(C(=O)Nc3cccc([C@]4(c5nncn5C)C[C@@H](C)C4)c3)nn3cccc23)C1` [Compound B13, 4-{[(3S)-3-methylpiperidin-1-yl]methyl}-N-{3-[(1r, 3s)-3-methyl-1-(4-methyl-1,2,4-triazol-3-yl)cyclobutyl]phenyl}pyrrolo[1,2-b]pyridazine-2-carboxamide], for which the IC50 is 30.5 nM in test [1] and 89.1 nM in test [2].

As to `Cn1cnnc1C[C@]1(c2cccc(NC(=O)c3cc(CNCC4(C)CCCC4)c4[nH]ccc4n3)c2)C[C@H](C#N)C1` [Compound B23, N-(3-((1r, 3r)-3-cyano-1-((4-methyl-4H-1,2,4-triazol-3-yl)methyl)cyclobutyl)phenyl)-7-((((1-methylcyclopentyl)methyl)amino)methyl)-1H-pyrrolo[3,2-b]pyridine-5-carboxamide], the values for the IC50 in test [1] and in test [2] were 3.6 nM and 8.8 nM, respectively.

Consider `C[C@H]1CCCN(Cc2cc(C(=O)Nc3cccc([C@]4(c5nncn5C)C[C@@H](CC#N)C4)c3)n3ncnc3c2)C1` [Compound A14, N-(3-((1s,3R)-3-(cyanomethyl)-1-(4-methyl-4H-1,2,4-triazol-3-yl)cyclobutyl)phenyl)-7-(((S)-3-methylpiperidin-1-yl)methyl)-[1,2,4]triazolo[1,5-a]pyridine-5-carboxamide], for which the values for the IC50 in test [1] and in test [2] were 45.3 nM and 185 nM, respectively.

Take `Cn1cnnc1[C@]1(c2cccc(NC(=O)c3cc(CNC4(C)CC4)c4[nH]ccc4n3)c2)C[C@H](CC#N)C1` [Compound B26, N-(3-((1s, 3s)-3-(cyanomethyl)-1-(4-methyl-4H-1,2,4-triazol-3-yl)cyclobutyl)phenyl)-7-(((1-methylcyclopropyl)amino)methyl)-1H-pyrrolo[3,2-b]pyridine-5-carboxamide]: the results for the IC50 in test [1] and in test [2] were 1.3 nM and 4.1 nM, respectively.
